From US20230184746A1, “HIGH-SENSITIVITY DETECTION OF GPCR ACTIVITY AND USES THEREOF” (Firmenich Incorporated, priority 2020, published 2023)
“Also recorded” adds a separate entry of the source.

Key:
Assay type in all cases: cell-based
[1] = target: T1, human sweet taste receptor (hT1R2/hT1R3) (Homo sapiens, UniProt Q7RTX0+Q8TE23, C757R/I191V/I486V/R317G); assay: Bias plotting analysis: DMR assay with R2/R3 U2OS cells vs FLIPR-calcium mobilization assay with R2/R3 U2OS cells expressing Gα15; settings: equimolar concentrations; data normalized to 1 mM sucralose; relative to other sweeteners
T1 construct: expressed in transfected cells
T1 sequence (Q8TE23 20-839 I191V/R317G/I486V): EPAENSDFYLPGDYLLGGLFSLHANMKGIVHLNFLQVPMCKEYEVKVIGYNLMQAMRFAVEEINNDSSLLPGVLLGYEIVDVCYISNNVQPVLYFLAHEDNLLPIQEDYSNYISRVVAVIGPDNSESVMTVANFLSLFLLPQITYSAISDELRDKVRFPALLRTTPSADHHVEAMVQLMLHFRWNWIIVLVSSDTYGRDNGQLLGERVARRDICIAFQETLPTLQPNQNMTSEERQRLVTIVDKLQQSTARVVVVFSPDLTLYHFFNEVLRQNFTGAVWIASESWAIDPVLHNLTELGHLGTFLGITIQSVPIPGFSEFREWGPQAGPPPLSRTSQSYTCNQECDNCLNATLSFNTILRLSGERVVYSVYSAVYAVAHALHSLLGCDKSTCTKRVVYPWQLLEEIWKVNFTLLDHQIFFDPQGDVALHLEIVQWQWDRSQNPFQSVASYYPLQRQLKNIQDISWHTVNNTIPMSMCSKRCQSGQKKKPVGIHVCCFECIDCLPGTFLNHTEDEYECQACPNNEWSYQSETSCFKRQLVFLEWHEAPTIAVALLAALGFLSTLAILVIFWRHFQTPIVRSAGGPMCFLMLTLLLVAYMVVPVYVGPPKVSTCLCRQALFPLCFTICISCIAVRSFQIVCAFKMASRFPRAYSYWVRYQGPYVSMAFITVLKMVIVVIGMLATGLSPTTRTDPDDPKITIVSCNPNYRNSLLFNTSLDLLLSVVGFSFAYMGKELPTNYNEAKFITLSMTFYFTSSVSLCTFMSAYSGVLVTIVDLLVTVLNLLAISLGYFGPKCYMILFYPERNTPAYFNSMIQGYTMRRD
T1 sequence (Q7RTX0 21-852 C757R): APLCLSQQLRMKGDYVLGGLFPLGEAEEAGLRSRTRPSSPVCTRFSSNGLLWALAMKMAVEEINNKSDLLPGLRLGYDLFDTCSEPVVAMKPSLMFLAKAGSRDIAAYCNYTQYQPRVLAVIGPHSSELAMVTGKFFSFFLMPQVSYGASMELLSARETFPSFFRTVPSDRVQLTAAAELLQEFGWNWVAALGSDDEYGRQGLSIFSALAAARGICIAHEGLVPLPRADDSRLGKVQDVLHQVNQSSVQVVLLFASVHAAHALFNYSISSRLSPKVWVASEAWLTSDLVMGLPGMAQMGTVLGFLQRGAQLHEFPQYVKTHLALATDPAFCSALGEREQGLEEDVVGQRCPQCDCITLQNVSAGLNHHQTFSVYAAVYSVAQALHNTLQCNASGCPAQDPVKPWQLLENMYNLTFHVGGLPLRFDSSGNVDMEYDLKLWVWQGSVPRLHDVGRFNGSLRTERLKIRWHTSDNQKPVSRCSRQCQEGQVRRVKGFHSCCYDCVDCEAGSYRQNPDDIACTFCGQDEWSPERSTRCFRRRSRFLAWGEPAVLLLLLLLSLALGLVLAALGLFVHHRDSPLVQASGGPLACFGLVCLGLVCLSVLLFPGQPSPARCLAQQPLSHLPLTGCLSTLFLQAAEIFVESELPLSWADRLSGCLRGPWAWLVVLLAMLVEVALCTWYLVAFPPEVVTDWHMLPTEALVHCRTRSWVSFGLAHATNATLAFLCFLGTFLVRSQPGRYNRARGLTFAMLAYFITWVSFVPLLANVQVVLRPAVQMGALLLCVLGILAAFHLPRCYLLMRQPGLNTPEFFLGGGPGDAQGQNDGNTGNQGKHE
Description: (§1) Untransfected U2OS cells were cultured at 37° C. and 5% CO2 in McCoy's 5A medium (modified, GIBCO#16600) supplemented with 10% fetal bovine serum and penicillin/streptomycin. Plasmids encoding hT1R2 in pEAK10-puromycin and hT1R3 in pcDNA3.1-zeocin were linearized and transfected into U2OS cells followed by dilution and double selection in growth medium plus 0.5 μg/m1puromycin and 100 μg/mlzeocin. Individual colonies were expanded and transiently transfected with a Gα6gust25 expression construct to identify functional clones using sucralose as the agonist in a Ca2+ imaging assay. […] The lidded Epic® 384 microplate and polypropylene compound plate (Corning) were loaded into the carousel of the Epic® reader, the target plate was washed with DMSO matched D-PBS using the Corning Epic® Liquid Handling Accessory (LHA) and equilibrated in 25 μL of DMSO matched D-PBS for 90 minutes. After recording the baseline activity for 5 to 8 minutes, 25 μL of 2× concentrated solution of sweetener, agonist or a mixture of agonist and modulator, diluted in D-PBS, was added using the LHA and the DMR responses which measures a shift in the resonance wavelength, were monitored for an additional 30 minutes. […]
(§2) In FIG. 2A known sweeteners and new agonists were evaluated in the DMR assay with R2/R3 U2OS cells using a dose-response analysis. […]

[2] = target: T1, human sweet taste receptor (hT1R2/hT1R3); assay: DMR assay (Epic reader) with R2/R3 U2OS cells; settings: increasing concentrations, no overexpressed G protein
Description: as §1, §2

parental U2OS cells = assay: DMR assay (Epic reader) with parental U2OS cells; settings: parental (untransfected) U2OS cells, increasing concentrations
Description: as §1, with “assay. […] (R2/R3 U2OS cells) were seeded on Epic®384 microplates (Corning) at a density of 16,000 cells/well in 40 pt of assay media using a multidrop (Thermo Scientific).” for “assay.”

| SMILES | Bias between FLIPR assay and DMR (EPIC) assay [1] | DMR signal (shift in resonance wavelength) [2] | DMR signal (shift in resonance wavelength) (parental U2OS cells) |
| --- | --- | --- | --- |
| COC(=O)[C@H](Cc1ccccc1)NC(=O)[C@H](CC(=O)O)NCCC(C)(C)C [Neotame] | more active in the FLIPR assay; also recorded: clear bias for the FLIPR assay | – | – |
| OC[C@H]1O[C@H](O[C@]2(CCl)O[C@H](CCl)[C@@H](O)[C@@H]2O)[C@H](O)[C@@H](O)[C@H]1Cl [sucralose] | – | positive DMR signal | does not cause a comparable positive DMR signal |
| CCCOc1ccc([N+](=O)[O-])cc1N [P-4000] | more active in the FLIPR assay; also recorded: clear bias for the FLIPR assay | – | – |
